Measurements as given in US9802899B2, “Heterocyclic compounds as pesticides” (BAYER CROPSCIENCE AG, priority 2012, dated 2017).

assay: Determination of the log P values by HPLC (formic acid method); format: physicochemical; details: reversed-phase HPLC column (C 18), reversed-phase column (C 18), acidic range (pH 3.4), 55° C.
Experimental: 1) Description of Method for Determination of the Log P Values (Formic Acid Method)
Eluents for determination in the acidic range (pH 3.4):
Eluent A: acetonitrile+1 ml of formic acid/liter. Eluent B: water+0.9 ml of formic acid/liter.
The lambda max values were determined in the maxima of the chromatographic signals using the UV spectra from 200 nm to 400 nm.

Work on `O=C(Nc1ccn(-c2cccnc2Cl)n1)c1ccccc1I` [Compound I-1-139, N-[1-(2-Chloropyridin-3-yl)-1H-pyrazol-3-yl]-2-iodobenzamide] yielded a chromatographic logP of 2.27.

same assay, conditions: reversed-phase column (C 18), acidic range (pH 3.4), 55° C.

`O=C(Nc1ccn(-c2cccc(F)c2F)n1)c1ccccc1Cl` [Compound I-1-66] and `O=C(Nc1ccn(-c2cccc(F)c2F)n1)c1ccccc1I` [Compound I-1-67] are within 0.2 log units of each other in “log P” value: 3.02 for the first, 3.10 for the second.

First: O=C(Nc1ccn(-c2cccc(F)c2F)n1)c1ncccc1C(F)(F)F [Compound I-1-68]
Second: O=C(Nc1ccn(-c2cc(F)ccc2F)n1)c1cccnc1C(F)(F)F [Compound I-1-70]
The “log P” value of the first is higher: 3.29 for the first, 2.60 for the second.

Going from `Cc1ccsc1C(=O)Nc1ccn(-c2cc(F)ccc2F)n1` [Compound I-1-71] to `Cc1ccsc1C(=O)Nc1ccn(-c2c(F)cccc2F)n1` [Compound I-1-103], the “log P” value falls from 3.24 to 2.64.

`Cc1ccccc1C(=O)Nc1ccn(-c2c(F)cccc2F)n1` [Compound I-1-73] and `O=C(Nc1ccn(-c2c(F)cccc2F)n1)c1ccccc1Cl` [Compound I-1-81] are within 0.2 log units of each other in “log P” value: 2.60 for the first, 2.55 for the second.

`O=C(Nc1ccn(-c2c(F)cccc2F)n1)c1ccccc1C(F)F` [Compound I-1-74] and `O=C(Nc1ccn(-c2c(F)cccc2F)n1)c1ccccc1O` [Compound I-1-87] are within 0.2 log units of each other in “log P” value: 2.73 for the first, 2.66 for the second.

`CCc1ccccc1C(=O)Nc1ccn(-c2c(F)cccc2F)n1` [Compound I-1-78] and `O=C(Nc1ccn(-c2c(F)cccc2F)n1)c1ccccc1OC(F)(F)F` [Compound I-1-79] are within 0.2 log units of each other in “log P” value: 2.92 for the first, 2.96 for the second.

`O=C(Nc1ccn(-c2c(F)cccc2F)n1)c1c(F)cccc1F` [Compound I-1-84] and `O=C(Nc1ccn(-c2c(F)cccc2F)n1)c1c(F)cccc1Cl` [Compound I-1-85] are within 0.2 log units of each other in “log P” value: 2.42 for the first, 2.60 for the second.

Going from `O=C(Nc1ccn(-c2c(F)cccc2F)n1)c1ccccc1SC(F)(F)F` [Compound I-1-88] to `O=C(Nc1ccn(-c2c(F)cccc2F)n1)c1cccnc1C(F)(F)F` [Compound I-1-93], the “log P” value falls from 3.15 to 2.68.

`O=C(Nc1ccn(-c2c(F)cccc2F)n1)c1ccccc1-n1cncn1` [Compound I-1-89] and `O=C(Nc1ccn(-c2ncc(F)cc2F)n1)c1ccccc1-n1cncn1` [Compound I-1-150] are within 0.2 log units of each other in “log P” value: 1.66 for the first, 1.47 for the second.

Going from `Cc1cccnc1C(=O)Nc1ccn(-c2c(F)cccc2F)n1` [Compound I-1-90] to `O=C(Nc1ccn(-c2c(F)cccc2F)n1)c1ncccc1Cl` [Compound I-1-92], the “log P” value falls from 2.86 to 2.40.

`O=C(Nc1ccn(-c2c(F)cccc2F)n1)c1cnccc1C(F)(F)F` [Compound I-1-94] and `O=C(Nc1ccn(-c2c(F)cccc2F)n1)c1ccncc1C(F)(F)F` [Compound I-1-97] are the same in “log P” value: 2.16 for the first, 2.16 for the second.

`O=C(Nc1ccn(-c2c(F)cccc2F)n1)c1cccnc1Cl` [Compound I-1-95] and `O=C(Nc1ccn(-c2c(F)cccc2F)n1)c1nccnc1Cl` [Compound I-1-100] are within 0.2 log units of each other in “log P” value: 1.96 for the first, 2.15 for the second.

`CCc1nnccc1C(=O)Nc1ccn(-c2c(F)cccc2F)n1` [Compound I-1-98] and `Cc1nn(C)cc1C(=O)Nc1ccn(-c2c(F)cccc2F)n1` [Compound I-1-107] are within 0.2 log units of each other in “log P” value: 1.73 for the first, 1.71 for the second.

`CC1=C(C(=O)Nc2ccn(-c3c(F)cccc3F)n2)SCCO1` [Compound I-1-101] and `O=C(Nc1ccn(-c2c(F)cccc2F)n1)C1=C(C(F)(F)F)OCCS1` [Compound I-1-102] are within 0.2 log units of each other in “log P” value: 2.41 for the first, 2.56 for the second.

Compared with `O=C(Nc1ccn(-c2c(F)cccc2F)n1)c1sccc1I` [Compound I-1-104], `O=C(Nc1ccn(-c2c(F)cccc2F)n1)c1ccsc1I` [Compound I-1-105] is lower in “log P” value: 2.96 for the first, 2.76 for the second.

First: Cc1noc(C(F)F)c1C(=O)Nc1ccn(-c2c(F)cccc2F)n1 [Compound I-1-106]
Second: Cc1nn(C)c(F)c1C(=O)Nc1ccn(-c2c(F)cccc2F)n1 [Compound I-1-110]
The “log P” value of the first is higher: 2.53 for the first, 1.98 for the second.

First: Cn1cc(C(=O)Nc2ccn(-c3c(F)cccc3F)n2)c(I)n1 [Compound I-1-108]
Second: Cc1nn(C)c(C)c1C(=O)Nc1ccn(-c2c(F)cccc2F)n1 [Compound I-1-109]
The “log P” value of the first is higher: 2.03 for the first, 1.77 for the second.

`O=C(Nc1ccn(-c2c(F)cccc2F)n1)c1ccnn1C(F)F` [Compound I-1-111] and `Cc1nonc1C(=O)Nc1ccn(-c2c(F)cccc2F)n1` [Compound I-1-116] are within 0.2 log units of each other in “log P” value: 2.40 for the first, 2.53 for the second.

`Cn1nc(C(F)(F)F)c(C(=O)Nc2ccn(-c3c(F)cccc3F)n2)c1F` [Compound I-1-112] and `Cc1nc(C(F)(F)F)c(C(=O)Nc2ccn(-c3c(F)cccc3F)n2)s1` [Compound I-1-114] are within 0.2 log units of each other in “log P” value: 2.53 for the first, 2.58 for the second.

Compared with `Cc1nc(C)c(C(=O)Nc2ccn(-c3c(F)cccc3F)n2)s1` [Compound I-1-113], `O=C(Nc1ccn(-c2c(F)cccc2F)n1)c1snc(Cl)c1Cl` [Compound I-1-115] is higher in “log P” value: 2.09 for the first, 3.33 for the second.

First: O=C(Nc1ccn(-c2cc(Cl)ccc2Cl)n1)c1ccccc1Br [Compound I-1-119]
Second: O=C(Nc1ccn(-c2c(Cl)cccc2Cl)n1)c1ccccc1Br [Compound I-1-122]
The “log P” value of the first is higher: 3.40 for the first, 2.88 for the second.

First: O=C(Nc1ccn(-c2c(Cl)cccc2Cl)n1)c1ccccc1C(F)(F)F [Compound I-1-120]
Second: O=C(Nc1ccn(-c2c(Cl)cccc2Cl)n1)c1cccnc1C(F)(F)F [Compound I-1-124]
The “log P” value of the first is higher: 3.05 for the first, 2.57 for the second.

Compared with `O=C(Nc1ccn(-c2ccccc2[N+](=O)[O-])n1)c1ccccc1Cl` [Compound I-1-125], `CS(=O)(=O)c1ccccc1-n1ccc(NC(=O)c2ccccc2Cl)n1` [Compound I-1-126] is lower in “log P” value: 2.46 for the first, 1.96 for the second.

Going from `O=C(Nc1ccn(-c2ccccn2)n1)c1ccccc1Br` [Compound I-1-127] to `O=C(Nc1ccn(-c2ncccc2F)n1)c1ccccc1Br` [Compound I-1-130], the “log P” value falls from 2.36 to 2.12.

Compared with `O=C(Nc1ccn(-c2ncccc2F)n1)c1ccccc1Cl` [Compound I-1-129], `O=C(Nc1ccn(-c2ncccc2Cl)n1)c1ccccc1I` [Compound I-1-138] is higher in “log P” value: 2.05 for the first, 2.36 for the second.

Compared with `O=C(Nc1ccn(-c2ncccc2F)n1)c1c(F)cccc1F` [Compound I-1-132], `O=C(Nc1ccn(-c2ncc(F)cc2F)n1)c1ccccc1Cl` [Compound I-1-143] is higher in “log P” value: 1.99 for the first, 2.32 for the second.

`O=C(c1cccnc1C(F)(F)F)N(C(=O)c1cccnc1C(F)(F)F)c1ccn(-c2ncccc2F)n1` [Compound I-1-134] and `CC(=O)N(C(=O)c1ccccc1C(F)(F)F)c1ccn(-c2ncc(F)cc2F)n1` [Compound I-1-142] are within 0.2 log units of each other in “log P” value: 2.93 for the first, 2.97 for the second.

Going from `O=C(Nc1ccn(-c2ncccc2Cl)n1)c1ccccc1C(F)(F)F` [Compound I-1-135] to `O=C(Nc1ccn(-c2ncc(F)cc2F)n1)c1cccnc1C(F)(F)F` [Compound I-1-151], the “log P” value falls from 2.41 to 2.02.

`O=C(Nc1ccn(-c2ncc(F)cc2F)n1)c1ccccc1Br` [Compound I-1-144] and `O=C(Nc1ccn(-c2ncc(F)cc2F)n1)c1ccccc1O` [Compound I-1-148] are within 0.2 log units of each other in “log P” value: 2.36 for the first, 2.48 for the second.

Going from `O=C(Nc1ccn(-c2ncc(F)cc2F)n1)c1ccccc1[N+](=O)[O-]` [Compound I-1-147] to `O=C(Nc1ccn(-c2ncc(F)cc2F)n1)c1ccccc1SC(F)(F)F` [Compound I-1-149], the “log P” value rises from 2.00 to 2.98.

For `O=C(Nc1ccn(-c2ncc(F)cc2F)n1)c1cccnc1Cl` [Compound I-1-152], the “log P” value was 1.72.
